# From PMC11898650, “Morpholine-Substituted Tetrahydroquinoline Derivatives as Potential mTOR Inhibitors: Synthesis, Computational Insights, and Cellular Analysis” (Cancers, 2025)
# What was measured:
# [1] = test system: triple-negative breast cancer (MDA-MB-231) cell line; assay: MTT antiproliferative assay, MDA-MB-231; type: cell-based, human; conditions: 48 h; for IC50: Homo sapiens
# Procedure: (§1) To evaluate the antiproliferative activity of the synthesized tetrahydroquinoline derivatives, three distinct human cancer cell lines were selected: breast cancer (MCF-7), lung cancer (A-549), and triple-negative breast cancer (MDA-MB-231). Furthermore, the synthesized compounds were tested on the VERO cell line to assess their potential toxicity. The VERO cell line, commonly derived from the kidney of an adult African green monkey, is widely used for toxicity studies. To evaluate the toxicity of the synthesized compounds, this cell line was utilized in the present study. The VERO cells were cultured using […] medium. The F-12 Ham’s medium was used to cultivate the lung cancer (A-549) cell lines. DMEM was used to cultivate the cell lines for breast cancer (MCF-7) and triple-negative breast cancer (MDA-MB-231). Because it feeds the cell line, 5% fatal bovine serum (FBS) was used to make the whole medium. To further protect the cell line from contamination, 0.5% pen–strep (penicillin + streptomycin) was added to all the mediums. All of these cell lines were cultivated in sterile, vented T-75 and/or T-25 flasks that were kept at 37 °C and supplied with 5% CO2. All of the compounds’ stock solutions were prepared in DMSO, and dilutions were made in the appropriate media so that the 96-well plates’ final DMSO content was not greater than 0.1%. First, each drug was tested in triplicate against every cell line at a 25 µM dose. […] On the first day, 1 × 10^4 cells were planted, and 24 h later, the chemicals were added. The MTT dye was added after the compounds and cells had been cultured for 48 h. After four hours, the MTT dye was taken out of the wells. Each well received 100 µL of DMSO to dissolve the formazan crystals that had formed as a result of the living cells, and absorbance at 570 nm was measured.
# [2] = test system: breast cancer (MCF-7) cell line; assay: MTT antiproliferative assay, MCF-7; type: cell-based; conditions: Homo sapiens, MCF7, 48 h
# Procedure: as §1
# [3] = test system: lung cancer (A-549) cell line; assay: MTT antiproliferative assay, A549; type: cell-based, human; conditions: 48 h; for IC50: Homo sapiens
# Procedure: as §1
# VERO cell line = assay: MTT toxicity assay, VERO; type: cell-based, African green monkey; conditions: Chlorocebus sabaeus, 48 h, VERO normal cells
# Procedure: as §1
# A549 lung cancer cells = assay: Annexin V-FITC/PI apoptosis assay by flow cytometry; type: cell-based, human; conditions: 48 h
# Procedure: A549 lung cancer cells were seeded in six-well plates and cultured in F-12 Ham’s medium supplemented with 5% FBS, 0.5% penicillin–streptomycin, and maintained in a 5% CO2 atmosphere at 37 °C for 24 h. […] Each condition was maintained in duplicate, with DMSO serving as the vehicle control, while 5-fluorouracil and Everolimus were used as positive controls. The treated cells, along with the DMSO control group, were incubated for 48 h. After incubation, the media were removed, and 1 mL of trypsin was added to each well for approximately one minute, followed by neutralization with 4 mL of fresh medium. Subsequent steps were carried out following the protocol of the Annexin V-FITC apoptosis detection kit (Ref No: BMS500FI, Lot No: 264043; Invitrogen, Waltham, MA, USA). The contents of each well were collected and transferred to centrifuge tubes, followed by centrifugation at 1000 RPM for 8 min. After removing the supernatant, the cell pellets were washed with PBS and subjected to another centrifugation step. The pellets were then resuspended in 1 mL of 1× binding buffer from the Annexin V-FITC apoptosis detection kit and incubated in the dark for 15–20 min. Subsequently, 500 µL of this cell suspension was transferred to individual plastic flow cytometry tubes. Each tube was supplemented with 10 µL of propidium iodide (PI) and 5 µL of Annexin V-FITC conjugate. The tubes were then incubated in the dark for 10 min before analyzing cell apoptosis using flow cytometry.
IC50 [1],IC50 [2],IC50 [3],MDA-MB-231 (IC50 µM) [1],A549 (IC50 µM) [3],Compound,IC50 (VERO cell line),"Necrosis (A549 lung cancer cells; A549, 3 µM)","apoptosis (early and last phase combined) (A549 lung cancer cells; A549, 3 µM)","Early Apoptosis (A549 lung cancer cells; A549, 6 µM)","Late Apoptosis (A549 lung cancer cells; A549, 6 µM)","Necrosis (A549 lung cancer cells; A549, 6 µM)","apoptosis (early and last phase combined) (A549 lung cancer cells; A549, 6 µM)"
8.16 ± 0.33 µM,4.34 ± 0.12 µM,1.06 ± 0.02 µM,,,"O=C(Nc1ccc2c(c1)N(C(=O)C1CCOCC1)CCC2)c1ccc(OC(F)(F)F)cc1 [Compound 10a, N-(1-(Tetrahydro-2H-pyran-4-carbonyl)-1,2,3,4-tetrahydroquinolin-7-yl)-4-(trifluoromethoxy)benzamide]",> 25 µM,,,,,,
> 25 µM,2.5 ± 0.16 µM,0.68 ± 0.13 µM,,,"O=C(Nc1ccc2c(c1)N(C(=O)N1CCCCC1)CCC2)c1cc(F)cc(C(F)(F)F)c1 [Compound 10g, 3-Fluoro-N-(1-(piperidine-1-carbonyl)-1,2,3,4-tetrahydroquinolin-7-yl)-5-(trifluoromethyl)benzamide]",> 25 µM,,,,,,
7.76 ± 0.37 µM,5.86 ± 0.07 µM,0.09 ± 0.01 µM,,,"CO[C@H]1C[C@@H]2CC[C@@H](C)[C@@](O)(O2)C(=O)C(=O)N2CCCC[C@H]2C(=O)O[C@H]([C@H](C)C[C@@H]2CC[C@@H](OCCO)[C@H](OC)C2)CC(=O)[C@H](C)/C=C(\C)[C@@H](O)[C@@H](OC)C(=O)[C@H](C)C[C@H](C)/C=C/C=C/C=C/1C [Everolimus, reference compound]",> 25 µM,,,,,,

# Second part, the compound before the results:
Compound,IC50 [1],IC50 [2],IC50 [3],MDA-MB-231 (IC50 µM) [1],A549 (IC50 µM) [3],IC50 (VERO cell line),"Necrosis (A549 lung cancer cells; A549, 3 µM)","apoptosis (early and last phase combined) (A549 lung cancer cells; A549, 3 µM)","Early Apoptosis (A549 lung cancer cells; A549, 6 µM)","Late Apoptosis (A549 lung cancer cells; A549, 6 µM)","Necrosis (A549 lung cancer cells; A549, 6 µM)","apoptosis (early and last phase combined) (A549 lung cancer cells; A549, 6 µM)"
"O=c1[nH]cc(F)c(=O)[nH]1 [Compound 5-FU, 5-fluorouracil, reference compound]",3.39 ± 0.37 µM,0.72 ± 0.03 µM,0.28 ± 0.008 µM,,,> 25 µM,,,,,,
"O=C(Nc1ccc2c(c1)N(C(=O)N1CCCCC1)CCC2)c1cc(F)cc(F)c1 [Compound 10f, 3,5-Difluoro-N-(1-(piperidine-1-carbonyl)-1,2,3,4-tetrahydroquinolin-7-yl)benzamide]",> 25 µM,4.47 ± 0.013 µM,> 25 µM,no activity,no activity,> 25 µM,,,,,,
"O=C(Nc1ccc2c(c1)N(C(=O)N1CCCCC1)CCC2)c1cc(C(F)(F)F)cc(C(F)(F)F)c1 [Compound 10h, N-(1-(Piperidine-1-carbonyl)-1,2,3,4-tetrahydroquinolin-7-yl)-3,5 bis(trifluoromethyl)benzamide]",1.29 ± 0.032 µM,0.087 ± 0.007 µM,3.36 ± 0.71 µM,,,> 25 µM,,,,,,
"O=C(Nc1ccc2c(c1)N(C(=O)N1CCOCC1)CCC2)c1cc(C(F)(F)F)cc(C(F)(F)F)c1 [Compound 10e, N-(1-(Morpholine-4-carbonyl)-1,2,3,4-tetrahydroquinolin-7-yl)-3,5-bis(trifluoromethyl)benzamide]",0.63 ± 0.02 µM,2.89 ± 0.013 µM,0.033 ± 0.003 µM,,,8.86 ± 0.03 µM,0.05%,75.7%,70.00%,20.37%,0.01%,
"O=C(Nc1ccc2c(c1)N(C(=O)N1CCOCC1)CCC2)c1cc(F)cc(C(F)(F)F)c1 [Compound 10d, 3-Fluoro-N-(1-(morpholine-4-carbonyl)-1,2,3,4-tetrahydroquinolin-7-yl)-5-(trifluoromethyl)benzamide]",1.003 ± 0.008 µM,0.58 ± 0.11 µM,0.062 ± 0.01 µM,,,> 25 µM,,29.35%,,,,77.66%
"O=C(Nc1ccc2c(c1)N(C(=O)C1CCCCC1)CCC2)c1ccc(OC(F)(F)F)cc1 [Compound 10b, N-(1-(Cyclohexanecarbonyl)-1,2,3,4-tetrahydroquinolin-7-yl)-4-(trifluoromethoxy)benzamide]",6.37 ± 0.19 µM,> 25 µM,4.72 ± 0.11 µM,,,9.82 ± 0.08 µM,,,,,,
